Data: US20130072430A1, “METHODS FOR TREATMENT OR PROPHYLAXIS OF KIDNEY OR LIVER DYSFUNCTION” (NPS PHARMACEUTICALS, INC., priority 2010, published 2013)

System: Human patients with short bowel syndrome
Assay: Example 2: liver biomarkers (albumin, gamma glutamyl transferase, total bilirubin, ALT, AST, ALP) in short bowel syndrome patients, every four weeks for 24 weeks
Assay type: in vivo
Conditions: 0.05 mg/kg/d; for Gamma Glutamyl Transferase Change from Baseline, Median / Gamma Glutamyl Transferase Observed Value, Mean / Gamma Glutamyl Transferase Observed Value, Median / ALKALINE PHOSPHATASE Change from Baseline, Median / ALT Change from Baseline, Mean / ALT Change from Baseline, Median / ALT Observed Value, Mean / ALT Observed Value, Median / AST Change from Baseline, Mean / AST Change from Baseline, Median / AST Observed Value, Mean / AST Observed Value, Median / Albumin Change from Baseline, Mean / Albumin Change from Baseline, Median / Albumin Observed Value, Mean / Albumin Observed Value, Median / Alkaline Phosphatase Change from Baseline, Mean / Alkaline Phosphatase Observed Value, Mean / Alkaline Phosphatase Observed Value, Median / Bilirubin Change from Baseline, Mean / Bilirubin Change from Baseline, Median / Bilirubin Observed Value, Mean / Bilirubin Observed Value, Median / Gamma Glutamyl Transferase Change from Baseline, Mean: n=40; for ALT >10% decrease from Baseline, % of subjects / ALT >10% decrease from Baseline, n subjects / ALT >10% increase from Baseline, % of subjects / ALT >10% increase from Baseline, n subjects / ALT Within 10% of Baseline, % of subjects / ALT Within 10% of Baseline, n subjects / AST >10% decrease from Baseline, % of subjects / AST >10% decrease from Baseline, n subjects / AST >10% increase from Baseline, % of subjects / AST >10% increase from Baseline, n subjects / AST Within 10% of Baseline, % of subjects / AST Within 10% of Baseline, n subjects / Albumin >10% decrease from Baseline, % of subjects / Albumin >10% decrease from Baseline, n subjects / Albumin >10% increase from Baseline, % of subjects / Albumin >10% increase from Baseline, n subjects / Albumin Within 10% of Baseline, % of subjects / Albumin Within 10% of Baseline, n subjects / Alkaline Phosphatase >10% decrease from Baseline, % of subjects / Alkaline Phosphatase >10% decrease from Baseline, n subjects / Alkaline Phosphatase >10% increase from Baseline, % of subjects / Alkaline Phosphatase >10% increase from Baseline, n subjects / Alkaline Phosphatase Within 10% of Baseline, % of subjects / Alkaline Phosphatase Within 10% of Baseline, n subjects / Bilirubin >10% decrease from Baseline, % of subjects / Bilirubin >10% decrease from Baseline, n subjects / Bilirubin >10% increase from Baseline, % of subjects / Bilirubin >10% increase from Baseline, n subjects / Bilirubin Within 10% of Baseline, % of subjects / Bilirubin Within 10% of Baseline, n subjects: m=40
Method: To further confirm the results of Example 1, a further study was conducted involving more individuals and additional diagnostic biomarkers. Human patients with short bowel syndrome were divided into two groups: a control group (43 total individuals) to receive placebo, and an experimental group (42 total individuals) to receive teduglutide at 0.05 mg/kg/day throughout the study. Patients were treated by subcutaneous injection of placebo or the appropriate dose of teduglutide. Known biomarkers of liver function were monitored every four weeks, for 24 weeks. The liver biomarkers tested included albumin, gamma glutamyl transferase, total bilirubin, ALT and AST and ALP. Before administration of placebo or teduglutide, diagnostic biomarker levels were tested to establish a baseline for each individual.
To determine the effect of GLP-2 on the levels of the diagnostic biomarkers, the average level of each biomarker was measured for the placebo and teduglutide treated groups for each visit. Furthermore, the average change from baseline was calculated using the established baseline values. For FIGS. 17-28, p-values were calculated using the t-test.
P values are provided, which were calculated for each distribution of biomarker changes for each week using the chi-squared test.

SMILES: CC[C@H](C)[C@H](NC(=O)[C@H](Cc1ccccc1)NC(=O)[C@H](CC(=O)O)NC(=O)[C@H](CCCNC(=N)N)NC(=O)[C@H](C)NC(=O)[C@H](C)NC(=O)[C@H](CC(C)C)NC(=O)[C@H](CC(N)=O)NC(=O)[C@H](CC(=O)O)NC(=O)[C@H](CC(C)C)NC(=O)[C@@H](NC(=O)[C@@H](NC(=O)[C@H](CC(N)=O)NC(=O)[C@H](CCSC)NC(=O)[C@H](CCC(=O)O)NC(=O)[C@H](CC(=O)O)NC(=O)[C@H](CO)NC(=O)[C@H](Cc1ccccc1)NC(=O)[C@H](CO)NC(=O)CNC(=O)[C@H](CC(=O)O)NC(=O)CNC(=O)[C@@H](N)Cc1c[nH]cn1)[C@@H](C)O)[C@@H](C)CC)C(=O)N[C@@H](CC(N)=O)C(=O)N[C@@H](Cc1c[nH]c2ccccc12)C(=O)N[C@@H](CC(C)C)C(=O)N[C@H](C(=O)N[C@@H](CCC(N)=O)C(=O)N[C@H](C(=O)N[C@@H](CCCCN)C(=O)N[C@H](C(=O)N[C@H](C(=O)N[C@@H](CC(=O)O)C(=O)O)[C@@H](C)O)[C@@H](C)CC)[C@@H](C)O)[C@@H](C)CC [teduglutide]
- Gamma Glutamyl Transferase Change from Baseline, Median (Week 2): 2.5 U/L
- Gamma Glutamyl Transferase Observed Value, Mean (Week 2): 84.6 U/L
- Gamma Glutamyl Transferase Observed Value, Median (Week 2): 52.5 U/L
- ALT >10% decrease from Baseline, % of subjects (Week 4): (65.0%)
- ALT >10% decrease from Baseline, n subjects (Week 4): 26
- ALT >10% increase from Baseline, % of subjects (Week 4): (15.0%)
- ALT >10% increase from Baseline, n subjects (Week 4): 6
- ALT Within 10% of Baseline, % of subjects (Week 4): (20.0%)
- ALT Within 10% of Baseline, n subjects (Week 4): 8
- AST >10% decrease from Baseline, % of subjects (Week 4): (65.0%)
- AST >10% decrease from Baseline, n subjects (Week 4): 26
- AST >10% increase from Baseline, % of subjects (Week 4): (20.0%)
- AST >10% increase from Baseline, n subjects (Week 4): 8
- AST Within 10% of Baseline, % of subjects (Week 4): (15.0%)
- AST Within 10% of Baseline, n subjects (Week 4): 6
- Albumin >10% decrease from Baseline, % of subjects (Week 4): (7.5%)
- Albumin >10% decrease from Baseline, n subjects (Week 4): 3
- Albumin >10% increase from Baseline, % of subjects (Week 4): (5.0%)
- Albumin >10% increase from Baseline, n subjects (Week 4): 2
- Albumin Within 10% of Baseline, % of subjects (Week 4): (87.5%)
- Albumin Within 10% of Baseline, n subjects (Week 4): 35
- Alkaline Phosphatase >10% decrease from Baseline, % of subjects (Week 4): (55.0%)
- Alkaline Phosphatase >10% decrease from Baseline, n subjects (Week 4): 22
- Alkaline Phosphatase >10% increase from Baseline, % of subjects (Week 4): (5.0%)
- Alkaline Phosphatase >10% increase from Baseline, n subjects (Week 4): 2
- Alkaline Phosphatase Within 10% of Baseline, % of subjects (Week 4): (40.0%)
- Alkaline Phosphatase Within 10% of Baseline, n subjects (Week 4): 16
- Bilirubin >10% decrease from Baseline, % of subjects (Week 4): (47.5%)
- Bilirubin >10% decrease from Baseline, n subjects (Week 4): 19
- Bilirubin >10% increase from Baseline, % of subjects (Week 4): (35.0%)
- Bilirubin >10% increase from Baseline, n subjects (Week 4): 14
- Bilirubin Within 10% of Baseline, % of subjects (Week 4): (17.5%)
- Bilirubin Within 10% of Baseline, n subjects (Week 4): 7
- ALKALINE PHOSPHATASE Change from Baseline, Median (Week 4): −15.5 U/L
- ALT Change from Baseline, Mean (Week 4): −9.2 U/L
- ALT Change from Baseline, Median (Week 4): −7 U/L
- ALT Observed Value, Mean (Week 4): 34.9 U/L
- ALT Observed Value, Median (Week 4): 29 U/L
- AST Change from Baseline, Mean (Week 4): −3.5 U/L
- AST Change from Baseline, Median (Week 4): −5 U/L
- AST Observed Value, Mean (Week 4): 29.1 U/L
- AST Observed Value, Median (Week 4): 26.5 U/L
- Albumin Change from Baseline, Mean (Week 4): -0.7 g/L
- Albumin Change from Baseline, Median (Week 4): -1 g/L
- Albumin Observed Value, Mean (Week 4): 41.7 g/L
- Albumin Observed Value, Median (Week 4): 42 g/L
- Alkaline Phosphatase Change from Baseline, Mean (Week 4): −20.5 U/L
- Alkaline Phosphatase Observed Value, Mean (Week 4): 115.8 U/L
- Alkaline Phosphatase Observed Value, Median (Week 4): 101 U/L
- Bilirubin Change from Baseline, Mean (Week 4): -1.10 µmol/L
- Bilirubin Change from Baseline, Median (Week 4): -1.5 µmol/L
- Bilirubin Observed Value, Mean (Week 4): 11.31 µmol/L
- Bilirubin Observed Value, Median (Week 4): 9.55 µmol/L
- Gamma Glutamyl Transferase Change from Baseline, Mean (Week 4): 1.7 U/L
- Gamma Glutamyl Transferase Change from Baseline, Median (Week 4): −0.5 U/L
- Gamma Glutamyl Transferase Observed Value, Mean (Week 4): 78.9 U/L
- Gamma Glutamyl Transferase Observed Value, Median (Week 4): 53.5 U/L
- ALT >10% decrease from Baseline, % of subjects (Week 8): (65.0%)
- ALT >10% decrease from Baseline, n subjects (Week 8): 26
- ALT >10% increase from Baseline, % of subjects (Week 8): (17.5%)
- ALT >10% increase from Baseline, n subjects (Week 8): 7
- ALT Within 10% of Baseline, % of subjects (Week 8): (17.5%)
- ALT Within 10% of Baseline, n subjects (Week 8): 7
- AST >10% decrease from Baseline, % of subjects (Week 8): (60.0%)
- AST >10% decrease from Baseline, n subjects (Week 8): 24
- AST >10% increase from Baseline, % of subjects (Week 8): (20.0%)
- AST >10% increase from Baseline, n subjects (Week 8): 8
- AST Within 10% of Baseline, % of subjects (Week 8): (20.0%)
- AST Within 10% of Baseline, n subjects (Week 8): 8
- Albumin >10% decrease from Baseline, % of subjects (Week 8): (2.5%)
- Albumin >10% decrease from Baseline, n subjects (Week 8): 1
- Albumin >10% increase from Baseline, % of subjects (Week 8): (2.5%)
- Albumin >10% increase from Baseline, n subjects (Week 8): 1
- Albumin Within 10% of Baseline, % of subjects (Week 8): (95.0%)
- Albumin Within 10% of Baseline, n subjects (Week 8): 38
- Alkaline Phosphatase >10% decrease from Baseline, % of subjects (Week 8): (62.5%)
- Alkaline Phosphatase >10% decrease from Baseline, n subjects (Week 8): 25
- Alkaline Phosphatase >10% increase from Baseline, % of subjects (Week 8): (5.0%)
- Alkaline Phosphatase >10% increase from Baseline, n subjects (Week 8): 2
- Alkaline Phosphatase Within 10% of Baseline, % of subjects (Week 8): (32.5%)
- Alkaline Phosphatase Within 10% of Baseline, n subjects (Week 8): 13
- Bilirubin >10% decrease from Baseline, % of subjects (Week 8): (50.0%)
- Bilirubin >10% decrease from Baseline, n subjects (Week 8): 20
- Bilirubin >10% increase from Baseline, % of subjects (Week 8): (25.0%)
- Bilirubin >10% increase from Baseline, n subjects (Week 8): 10
- Bilirubin Within 10% of Baseline, % of subjects (Week 8): (25.0%)
- Bilirubin Within 10% of Baseline, n subjects (Week 8): 10
- ALKALINE PHOSPHATASE Change from Baseline, Median (Week 8): −18.5 U/L
- ALT Change from Baseline, Mean (Week 8): −10.2 U/L
- ALT Change from Baseline, Median (Week 8): −5.5 U/L
- ALT Observed Value, Mean (Week 8): 33.9 U/L
- ALT Observed Value, Median (Week 8): 26 U/L
- AST Change from Baseline, Mean (Week 8): −5.1 U/L
- AST Change from Baseline, Median (Week 8): −5 U/L
- AST Observed Value, Mean (Week 8): 27.5 U/L
- AST Observed Value, Median (Week 8): 23.5 U/L
- Albumin Change from Baseline, Mean (Week 8): -0.7 g/L
- Albumin Change from Baseline, Median (Week 8): -1 g/L
- Albumin Observed Value, Mean (Week 8): 41.7 g/L
- Albumin Observed Value, Median (Week 8): 42 g/L
- Alkaline Phosphatase Change from Baseline, Mean (Week 8): −24.3 U/L
- Alkaline Phosphatase Observed Value, Mean (Week 8): 112.0 U/L
- Alkaline Phosphatase Observed Value, Median (Week 8): 94 U/L
- Bilirubin Change from Baseline, Mean (Week 8): -1.60 µmol/L
- Bilirubin Change from Baseline, Median (Week 8): -0.95 µmol/L
- Bilirubin Observed Value, Mean (Week 8): 10.81 µmol/L
- Bilirubin Observed Value, Median (Week 8): 7.75 µmol/L
- Gamma Glutamyl Transferase Change from Baseline, Mean (Week 8): −5.7 U/L
